Test results published in the NIST ThermoML archive (doi:10.1016/j.tca.2005.04.019).
Numbers after ± are expanded uncertainties.

Tests used:
[1] = DTA
[2] = Molar enthalpy of transition or fusion; settings: DSC

Row | Structure (SMILES) | Triple point temperature ([1]; Crystal 2) [K] | Molar enthalpy of transition or fusion ([2]; Crystal 2) [kcal/mol] | Triple point temperature ([1]; Crystal 3) [K] | Molar enthalpy of transition or fusion ([2]; Crystal 3) [kcal/mol] | Triple point temperature ([1]; Crystal 4) [K] | Molar enthalpy of transition or fusion ([2]; Crystal 4) [kcal/mol]
1 | CCCCCCCCCC[NH2+]CCCCCCCCCC.[Br-] [N-decyldecan-1-aminium bromide] | 330.1 ± 3 | 9.08 ± 0.478 | – | – | – | –
2 | CCCCCCCCCC[NH2+]CCCCCCCCCC.O=P([O-])(O)O [N-decyldecan-1-aminium dihydrogen phosphate] | 354.1 ± 3 | 14.6 ± 0.478 | – | – | – | –
3 | CCCCCCCCCC[NH2+]CCCCCCCCCC.O=[N+]([O-])[O-] [N-decyldecan-1-aminium nitrate] | 333.1 ± 3 | 15.3 ± 0.239 | – | – | – | –
4 | CCCCCCCCCCCC[NH2+]CCCCCCCCCCCC.[Br-] [N-dodecyldodecan-1-aminium bromide] | 346.1 ± 3 | 11.7 ± 0.263 | – | – | – | –
5 | CCCCCCCCCCCC[NH2+]CCCCCCCCCCCC.[Cl-] [N-dodecyldodecan-1-aminium chloride] | 338.1 ± 3 | 11.5 ± 0.239 | – | – | – | –
6 | CCCCCCCCCCCC[NH2+]CCCCCCCCCCCC.O=P([O-])(O)O [N-dodecyldodecan-1-aminium dihydrogen phosphate] | 363.1 ± 3 | 19.8 ± 0.717 | 328.1 ± 3 | – | – | –
7 | CCCCCCCCCCCC[NH2+]CCCCCCCCCCCC.O=S(=O)([O-])O [N-dodecyldodecan-1-aminium hydrogen sulfate] | 373.1 ± 3 | – | 347.1 ± 3 | 7.17 ± 0.478 | – | –
8 | CCCCCCCCCCCC[NH2+]CCCCCCCCCCCC.[I-] [N-dodecyldodecan-1-aminium iodide] | 338.1 ± 3 | 9.2 ± 0.239 | – | – | – | –
9 | CCCCCCCCCCCC[NH2+]CCCCCCCCCCCC.O=[N+]([O-])[O-] [N-dodecyldodecan-1-aminium nitrate] | 339.1 ± 3 | 18.4 ± 0.239 | – | – | – | –
10 | CCCCCCCCCCCC[NH2+]CCCCCCCCCCCC.[O-][Cl+3]([O-])([O-])[O-] [N-dodecyldodecan-1-aminium perchlorate] | 335.1 ± 3 | 17.2 ± 0.478 | – | – | – | –
11 | CCCCCCCCCCCCCCCCCC[NH2+]CCCCCCCCCCCCCCCCCC.[Br-] [N-octadecyloctadecan-1-aminium bromide] | 371.15 ± 3 | 19.4 ± 0.478 | – | – | – | –
12 | CCCCCCCCCCCCCCCCCC[NH2+]CCCCCCCCCCCCCCCCCC.[Cl-] [N-octadecyloctadecan-1-aminium chloride] | 364.35 ± 3 | 23.2 ± 0.478 | – | – | – | –
13 | CCCCCCCCCCCCCCCCCC[NH2+]CCCCCCCCCCCCCCCCCC.O=S(=O)([O-])O [N-octadecyloctadecan-1-aminium hydrogen sulfate] | 355.1 ± 3 | – | 343.1 ± 3 | 26.1 ± 0.717 | – | –
14 | CCCCCCCCCCCCCCCCCC[NH2+]CCCCCCCCCCCCCCCCCC.[I-] [N-octadecyloctadecan-1-aminium iodide] | 366.15 ± 3 | 17.9 ± 0.717 | – | – | – | –
15 | CCCCCCCCCCCCCCCCCC[NH2+]CCCCCCCCCCCCCCCCCC.O=[N+]([O-])[O-] [N-octadecyloctadecan-1-aminium nitrate] | 366.65 ± 3 | 26.1 ± 0.717 | – | – | – | –
16 | CCCCCCCCCCCCCCCCCC[NH2+]CCCCCCCCCCCCCCCCCC.[O-][Cl+3]([O-])([O-])[O-] [N-octadecyloctadecan-1-aminium perchlorate] | 361.25 ± 3 | 27.49 ± 0.239 | – | – | – | –
17 | CCCCCCCCNCCCCCCCC.Cl [N-octyl-1-octaminium hydrochloride] | 294.1 ± 3 | 8.84 ± 0.239 | – | – | – | –
18 | CCCCCCCC[NH2+]CCCCCCCC.[Br-] [N-octyloctan-1-aminium bromide] | 303.1 ± 5 | 5.98 ± 0.239 | – | – | – | –
19 | CCCCCCCC[NH2+]CCCCCCCC.O=P([O-])(O)O [N-octyloctan-1-aminium dihydrogen phosphate] | 333.1 ± 3 | – | – | – | – | –
20 | CCCCCCCC[NH2+]CCCCCCCC.[I-] [N-octyloctan-1-aminium iodide] | 271.1 ± 1 | – | 267.1 ± 1 | 5.02 ± 0.239 | – | –
21 | CCCCCCCC[NH2+]CCCCCCCC.O=[N+]([O-])[O-] [N-octyloctan-1-aminium nitrate] | 318.1 ± 3 | 12.8 ± 0.239 | – | – | – | –
22 | CCCCCCCC[NH2+]CCCCCCCC.[O-][Cl+3]([O-])([O-])[O-] [N-octyloctan-1-aminium perchlorate] | 296.1 ± 10 | 8.84 ± 0.478 | – | – | – | –
23 | CCCCCCCCCC[NH2+]CCCCCCCCCC.[Cl-] [didecylammonium chloride] | 321.1 ± 3 | 9.56 ± 0.239 | – | – | – | –
24 | CCCCCCCC[NH2+]CCCCCCCC.O=S(=O)([O-])O [dioctylammonium hydrogen sulfate] | 463.15 ± 3 | 1.15 ± 0.717 | 371.1 ± 3 | 0.335 ± 0.0717 | 289.1 ± 3 | 0.98 ± 0.0478
